Test results published in patent US20250320496A1, “MODULATION OF ABCB11 GENE TRANSCRIPTION USING ANTISENSE OLIGONUCLEOTIDES TARGETING REGULATORY RNAS” (CAMP4 Therapeutics Corporation, priority 2022, published 2025).
Strand notation (5' to 3'): a small letter for the sugar, then the base; units joined by * are phosphorothioate-linked, units joined directly phosphodiester-linked; [ ] holds rarer units or linkages, { } end groups; capitals alone tell only the bases. e = 2'-O-(2-methoxyethyl) (MOE); l = locked nucleic acid (LNA); [5mC] = 5-methylcytosine; d = 2'-deoxy (DNA)

Tested on: human ABCB11 mRNA
Experiment: ASO treatment of primary human hepatocytes (PHH), ABCB11 mRNA by RT-qPCR normalized to B2M
Format: cell-based
Conditions: primary human hepatocytes; for ABCB11 mRNA FC (5 μM ASO vs. UNT): normalized to untreated PHHs (UNT); for ABCB11 FC mRNA (5 μM ASO vs. untreated): 5 μM ASO with PO-modifications, normalized to untreated hepatocytes
Procedure: Primary human hepatocytes (PHH) were thawed using Lonza Human Cryopreserved Hepatocyte Thawing Medium and plated in 96-well collagen-coated plates (5.5-6.0×10^4 cells per well). Four hours later, the media was replaced with sterile-filtered QualGro™ Hepatocyte Culture Medium (BioIVT) containing antibiotic supplement, 0.3 mg/ml Matrigel® matrix (Corning®), and ASO at the desired concentration (e.g., 1.25 μM, 2.5 μM, 5 μM, or 10 μM). After 72 hrs., cells were harvested by aspirating media, washing once with phosphate-buffered saline (PBS), and lysed with 150 μl of Buffer RLT lysis buffer (Qiagen®). Plates were frozen at-80° C. during cell lysis. After thawing, total RNA was isolated using the Qiagen RNEasy kit as instructed by manufacturer. cDNA (random-primed) was synthesized from 10 μl of RNA using the LifeTech High Capacity cDNA Reverse Transcription kit. 2 μl of cDNA was used for reverse transcription-quantitative PCR (RT-qPCR) analyses using standard Taqman” reagents from Applied Biosystems™ to measure ABCB11 and CYP7A1 gene expression. Gene expression data was normalized to the housekeeper gene, beta-2-microglobulin (B2M).
To assess the ability of ASOs targeting ABCB11 regRNAs to modulate the expression of human ABCB11, 195 ASOs targeting the human ABCB11 regRNAs were synthesized. These initial ASOs were screened in PHHs at 5 μM to determine their efficacy in increasing human ABCB11 mRNA using quantitative PCR. This initial screen identified 10 ASOs that induced increased expression of ABCB11 mRNA by more than 1.5-fold (as compared to untreated PHHs).

Substance	ABCB11 mRNA FC (5 μM ASO vs. UNT) [fold change]	ABCB11 FC mRNA (5 μM ASO vs. untreated) [fold change]
CO-7178: derivative ASO with additional chemical modifications based on parent ASO CO-4529 (antisense eG*eT*eG*lG*eA*lG*e[5mC]*lA*eA*lA*e[5mC]*lT*eA*lG*eG*l[5mC]*eA*l[5mC]*eT*eG)	1.737	
CO-6676 (antisense eT*eA*eA*eA*eG*e[5mC]*eA*eA*eG*e[5mC]*eT*eG*eT*eG*eT*eG*eG*eA*eA*eG)	1.204	
CO-4015 (antisense eG*eT*eT*eT*eG*e[5mC]*eT*e[5mC]*eT*eG*eA*eT*eA*eA*eT*e[5mC]*eA*e[5mC]*eA*eG)	1.043	
CO-7105 (eT*eA*eT*e[5mC]*eT*dG*dG*lA*dA*dA*lA*dT*dA*lA*dT*dG*l[5mC]*d[5mC]*dT*eT*eT*e[5mC]*eT*eA; antisense)	1.002	
CO-7056 (antisense eT*eG*e[5mC]*eT*e[5mC]*eA*e[5mC]*e[5mC]*e[5mC]*e[5mC]*e[5mC]*e[5mC]*eT*e[5mC]*eA*e[5mC]*e[5mC]*eT*eT*eG)	1.491	
CO-12747 (antisense eG*eT*eGeAeGeGe[5mC]*eA*eT*e[5mC]*eA*eG*eG*eTeAeAeGeT*eT*e[5mC])		0.97
CO-4051 (antisense eG*eA*e[5mC]*eT*eT*eT*eT*eG*eA*eG*e[5mC]*eA*eA*eG*eG*e[5mC]*eT*eG*eT*eT)	0.908	
CO-4058 (antisense eG*eA*eT*eT*e[5mC]*eA*e[5mC]*eA*eA*eG*eA*eA*eG*eG*eG*eA*eG*eA*eG*eG)	1.134	
CO-6982 (antisense eA*eA*eG*eA*e[5mC]*eA*eG*eA*eA*eG*eT*eG*eA*eG*eG*e[5mC]*eA*eT*e[5mC]*eA)	0.976	
CO-11219 (antisense eG*eT*lGeG*lA*eGl[5mC]*eA*lAeA*l[5mC]*eTlA*eG*lGe[5mC]*lA*e[5mC]eT*eG)		2.45
CO-6998 (antisense eG*eT*eG*lA*eG*lG*e[5mC]*lA*eT*l[5mC]*eA*lGeG*lT*eA*lA*eG*lT*eT*e[5mC])	1.246	
CO-3995 (antisense eG*eT*e[5mC]*eT*eA*eG*eG*eA*eG*e[5mC]*eT*eT*e[5mC]*eT*eG*eT*eT*eT*eA*e[5mC])	1.683	
CO-7054 (antisense eA*e[5mC]*e[5mC]*e[5mC]*e[5mC]*d[5mC]*d[5mC]*dT*d[5mC]*dA*d[5mC]*d[5mC]*dT*dT*dG*eG*eT*eT*e[5mC]*e[5mC])	1.323	
CO-11216 (antisense eG*eT*lG*eG*lAeG*l[5mC]*eA*lAeA*l[5mC]*eT*lAeG*lG*e[5mC]*lAe[5mC]*eT*eG)		2.58
CO-6968 (antisense eT*eG*eG*eA*eT*dG*dT*dA*dG*dA*dT*dG*dA*dA*dT*eG*eG*e[5mC]*eA*eA)	1.373	
CO-6967 (antisense eG*eA*eT*eG*eT*eA*eG*eA*eT*eG*eA*eA*eT*eG*eG*e[5mC]*eA*eA*eG*eG)	1.405	
CO-7088 (eA*e[5mC]*e[5mC]*e[5mC]*e[5mC]*l[5mC]*d[5mC]*dT*l[5mC]*dA*d[5mC]*l[5mC]*dT*dT*lG*eG*eT*eT*e[5mC]*e[5mC]; antisense)	1.177	
CO-11229 (antisense eG*eTlG*eG*eA*lGe[5mC]*eA*lA*eAe[5mC]*lT*eA*eGlG*e[5mC]*eA*l[5mC]eT*eG)		2.83
CO-6995 (antisense eG*eT*eG*eA*eG*lG*d[5mC]*dA*lT*d[5mC]*dA*lG*dG*dT*lA*eA*eG*eT*eT*e[5mC])	1.277	
CO-6994 (antisense eT*eG*eG*eA*lT*eG*eT*eA*eG*lA*eT*eG*eA*eA*lT*eG*eG*e[5mC]*eA*eA)	1.131	
CO-7188: derivative ASO with additional chemical modifications based on parent ASO CO-4535 (antisense eT*eG*eG*l[5mC]*eG*lT*eT*lA*eT*lT*eA*lA*eT*lT*e[5mC]*lT*eA*l[5mC]*eA*eG)	1.697	
CO-7093 (eA*e[5mC]*l[5mC]*e[5mC]*e[5mC]*l[5mC]*e[5mC]*eT*l[5mC]*eA*e[5mC]*l[5mC]*eT*eT*lG*eG*eT*lT*e[5mC]*e[5mC]; antisense)	1.269	
CO-4489 (antisense e[5mC]*eA*e[5mC]*eA*eG*eA*eG*eT*eG*e[5mC]*e[5mC]*eA*eA*eG*eG*eA*eG*eT*eT*eA)	1.083	

Substance	ABCB11 mRNA FC (5 μM ASO vs. UNT) [fold change]	ABCB11 FC mRNA (5 μM ASO vs. untreated) [fold change]
CO-11231 (antisense eG*eT*lGeG*eA*lGe[5mC]*eA*lAeA*e[5mC]*lTeA*eG*lGe[5mC]*eA*l[5mC]eT*eG)		1.85
CO-7010 (antisense eT*eG*eT*eG*eG*eA*eT*eG*eT*eA*eG*eA*eT*eG*eA*eA*eT*eG*eG*e[5mC]*eA*eA*eG*eG)	1.293	
CO-4012 (antisense eG*eA*eA*e[5mC]*eT*eA*e[5mC]*eA*e[5mC]*e[5mC]*eG*eA*e[5mC]*eT*eT*eT*eA*eT*e[5mC]*eT)	1.15	
CO-7066 (eT*e[5mC]*eT*eG*eG*lA*eA*eA*eA*eT*lA*eA*eT*eG*e[5mC]*l[5mC]*eT*eT*eT*e[5mC]; antisense)	1.2	
CO-6989 (antisense eT*eG*lG*eA*lT*eG*lT*eA*lG*eA*lT*eG*lA*eA*lT*eG*lG*e[5mC]*eA*eA)	1.469	
CO-4055 (antisense eT*eT*eG*eA*eA*e[5mC]*e[5mC]*eT*eT*eT*eA*eG*eA*eA*eA*eA*eT*e[5mC]*eG*eT)	1.287	
CO-11200 (antisense eT*eG*eTeTeTeTeG*e[5mC]*eT*eT*eG*eG*eT*e[5mC]eAeAeGeA*eG*eG)		1.34
CO-7002 (antisense eG*eT*eG*lA*eG*eG*e[5mC]*lA*eT*e[5mC]*eA*lG*eG*eT*eA*lA*eG*eT*eT*e[5mC])	1.367	
CO-4056 (antisense eG*e[5mC]*eT*eT*eA*eT*eT*eT*eG*eA*e[5mC]*eT*e[5mC]*eA*eA*eG*eA*e[5mC]*e[5mC]*eT)	1.115	
CO-7037 (antisense e[5mC]*eT*eG*eT*eA*e[5mC]*eA*eT*eT*eT*eA*eG*eA*eG*eA*e[5mC]*eA*eA*eA*eG)	1.136	
CO-7158 (antisense eA*eG*eG*eT*eG*eG*eA*eG*e[5mC]*eA*eA*eA*e[5mC]*eT*eA*eG*eG*e[5mC]*eA*e[5mC])	1.229	
CO-11241 (antisense eG*eTeG*eG*lA*eGe[5mC]*eA*eA*lAe[5mC]*eT*eA*eGlG*e[5mC]*eA*e[5mC]eT*eG)		1.71
CO-4498 (antisense eG*eT*e[5mC]*e[5mC]*e[5mC]*eT*eG*eT*eG*eG*eT*eT*eA*e[5mC]*e[5mC]*eT*eA*eA*eA*eG)	0.934	
CO-11240 (antisense eG*eT*eG*eG*lAeG*e[5mC]*eA*eAlA*e[5mC]*eT*eAeG*lG*e[5mC]*eAe[5mC]*eT*eG)		1.31
CO-7041 (antisense eG*eT*e[5mC]*eA*eA*eG*eA*eGeG*eA*eA*eA*eG*eA*eA*e[5mC]*eT*eG*eG*e[5mC])	1.15	
CO-7053 (antisense e[5mC]*e[5mC]*eT*e[5mC]*eA*e[5mC]*e[5mC]*eT*eT*eG*eG*eT*eT*e[5mC]*e[5mC]*e[5mC]*e[5mC]*e[5mC]*eT*eG)	1.145	
CO-7169 (antisense eT*eT*eA*eT*eT*eT*eG*eG*e[5mC]*eG*eT*eT*eA*eT*eT*eA*eA*eT*eT*e[5mC])	1.289	
CO-4057 (antisense e[5mC]*eA*eG*e[5mC]*eA*e[5mC]*eA*eA*eA*eT*eA*eT*eA*eT*eT*eG*eG*eA*eG*eG)	1.245	
CO-7089 (eA*e[5mC]*e[5mC]*l[5mC]*e[5mC]*d[5mC]*d[5mC]*lT*d[5mC]*dA*d[5mC]*l[5mC]*dT*dT*dG*lG*eT*eT*e[5mC]*e[5mC]; antisense)	1.249	
CO-7153 (antisense eA*e[5mC]*e[5mC]*eT*eT*eA*eG*eG*eA*eG*eG*eA*eT*eT*eA*eT*eT*eT*eA*eA*e[5mC]*e[5mC]*eT*e[5mC])	1.409	
CO-7050 (antisense eT*eT*eG*eG*eT*eT*e[5mC]*e[5mC]*e[5mC]*e[5mC]*e[5mC]*eT*eG*e[5mC]*eT*eG*eT*eG*e[5mC]*eT)	1.026	
CO-4049 (antisense eG*eT*e[5mC]*eT*e[5mC]*e[5mC]*eA*e[5mC]*eA*eA*eA*eA*e[5mC]*eT*e[5mC]*eT*eA*eT*eA*eG)	0.889	
